Measurements as given in patent US9192656B2, “Methods and compositions for the treatment of cancer” (QUINTESSENCE BIOSCIENCES, INC., priority 2006, dated 2015).

Assays:
[1] = system: human prostate cancer cell line (DU145); experiment: In vivo inhibition of tumor growth, DU145 xenograft; design: species or system human tumor cells in nude mice; details: Example 4, Table 8, RNase 1 75 mg/kg 1×wk, docetaxel 8 mg/kg once a week
Description: Cells from a non-small cell lung cancer cell line (A549) were grown in nine T175 flasks in F12K media and 10% fetal calf serum until the cells were confluent. 4.5×10^6 cells (in 100 microliters) were injected into the right rear flank of 4-5 week old male homozygous (nu/nu) nude mice (Harlan, Madison Wis.). Tumors were allowed to grow to an average size of ≧75 mm^3 before treatments were initiated. Animals of each tumor type, with the properly sized tumors, were divided into treatment groups, including one set of animals treated weekly with vehicle (phosphate buffered saline, PBS). The vehicle and the test agents were all administered by intraperitoneal injection. Each animal was weighed twice a week during treatment. The tumors were measured twice weekly using calipers. Tumor volume (mm^3) was determined by using the formula for an ellipsoid sphere: […]
The percent tumor growth inhibition (% TGI) is calculated by: […]
This xenograft model was set up as in the previous example except that a human prostate cancer cell line (DU145) was used. The efficacy of wild type human RNase 1 is shown relative to docetaxel. The RNase 1 was administered at 75 mg per kg of body weight of the animal (75 mg/kg 1×wk), while the docetaxel was used at 8 mg/kg once a week. The value of n represents the number of animals in the specific treatment arm of the experiment.
(§1) The xenograft model of this example was set up as in the previous example except that a human prostate cancer cell line (DU145) was used. The efficacy of wild type human RNase 1 is shown. The RNase 1 was administered at 75 mg per kg of body weight of the animal once per week (75 mg/kg 1×wk). The value of n represents the number of animals in the specific treatment arm of the experiment.
as §1, with “example.” for “example except that a human prostate cancer cell line (DU145) was used.”, “three different doses: (1) 15” for “75”, “(15” for “(75”, “1×wk), (2) 75 mg/kg 1×wk, or (3) 300 mg/kg 1×wk.” for “1×wk).”

[2] = Clinical chemistry and complete blood count plus platelets (DU145 xenograft mice); format: in vivo
Description: Clinical chemistry and a complete blood count (CBC) plus platelets were performed on whole blood and serum samples collected from the mice 24 hours after the last treatment of the prostate xenograft model above. […] Creatinine was also tested and found not to differ. The levels of the liver enzymes, gamma glutamyl transferase (GGT) and alanine transaminase (ALT) in all treatment groups were similar (GGT data not shown.). The values were determined for the various treatment groups of the prostate (DU145) xenograft study for clinical chemistry (A., B.), complete blood count (C., D.), and platelets (F.). Abbreviations: TCO2, amount of bicarbonate ion (HCO3^−); Anion Gap, [Na+K]—[Cl+HCO3]; ALT, alanine aminotransferase; WBC, white blood count; RBC, red blood count; HGB, hemoglobin; RBC HGB, (CHCM×RBC×MCV)/1000); MCH, mean corpuscular hemoglobin; MCHC, mean corpuscular hemoglobin concentration; RDW, red cell distribution width; MPV, mean platelet volume; HCT, hematocrit; MCV, mean corpuscular volume.

**Q.** Which “% TGI” value [1] does the source give for `CC(=O)O[C@@]12CO[C@@H]1C[C@H](O)[C@@]1(C)C(=O)[C@H](O)C3=C(C)[C@@H](OC(=O)[C@H](O)[C@@H](NC(=O)OC(C)(C)C)c4ccccc4)C[C@@](O)([C@@H](OC(=O)c4ccccc4)[C@H]21)C3(C)C` [Docetaxel, (2R,3S)-N-carboxy-3-phenylisoserine, N-tert-butyl ester, 13-ester with 5b-20-epoxy-12a,4,7b,10b,13a-hexahydroxytax-11-en-9-one 4-acetate 2-benzoate, trihydrate, reference compound] here?
**A.** 92%

**Q.** What about the “(Final − start)” value [1] of the same compound?
**A.** 180 mm^3

**Q.** What about the “(Final − start)/Control” value [1] of the same compound?
**A.** 0.08

**Q.** What about the Final volume [1] of the same compound?
**A.** 249 mm^3

**Q.** What about the Starting volume ([1]; at start) of the same compound?
**A.** 60 mm^3

**Q.** What about the Creatinine versus vehicle ([2]; 24 hours after the last treatment) of the same compound?
**A.** not to differ

**Q.** What about the “Clinical chemistry and complete blood count plus platelets, all tests, versus vehicle” value ([2]; whole blood and serum 24 hours after the last treatment, Mann-Whitney U test) of the same compound?
**A.** not to be significantly different
